{
  "source": "patent US11491144B2",
  "about": "“Methods of treating fragile X mental retardation syndrome” (The Florida State University Research Foundation, …, priority 2018, dated 2022)",
  "key": {"male FX mice": {"test_system": "male FX mice", "assay": "Spontaneous locomotor activity assay (photobeam breaks, dark phase)", "type": "in vivo, mouse", "details": "male FX mice (B6.129P2-Fmr1tm1Cgr/J); nor-BNI 20 mg/kg or MPH 0.75 mg/kg intraperitoneal; measured between 7 pm and 7 am", "description": "(§1) The B6.129P2-Fmr1^tm1Cgr/J strain of mouse was used in the studies as it is a widely used mouse model of FX (Kazdoba et al. Intractable Rare Dis. Res. 2014, 3, 118), and C57BL/6J mice were used as the control strain of mice. Mice were housed 2-4 per cage and maintained on a “reversed” light cycle (lights-off at 7 am and lights-on at 7 pm). They were habituated to the investigator by extensive handing for at least one week prior to the beginning of behavioral analyses. Additionally, they were habituated to the behavioral test room for at least 30 min prior to the behavioral testing, and testing was conducted under dim red light.\n(§2) The mice underwent a battery of tests starting on postnatal day 60 (P60). Behavioral analyses included measurements of spontaneous locomotor activity, working memory, attention, and social interactions. Approximately 12 male and/or female mice were used for each behavioral test.\nSpontaneous locomotor activity was assayed by using a testing chamber with photobeam motion sensors (Photobeam Activity Systems, San Diego Instruments, San Diego, Calif.). […] Photobeam breaks were recorded, scored as an ambulatory event, and grouped into hourly activity measurements for statistical analysis. Cumulative activity over the 12 hour “dark phase” was calculated. […]"}, "FX mice": {"test_system": "FX mice", "assay": "Cliff avoidance reflex (CAR) test for motor impulsivity", "type": "in vivo, mouse", "details": "20 mg/kg intraperitoneal, 30 min test, 5 min intervals", "description": "as §1, §2\nMotor-impulsivity was assayed using a cliff avoidance reflex (CAR) test. The apparatus consists of a round Plexiglas platform (20 cm in diameter) supported by an iron rod (50 cm in height). The mouse is placed on the platform and observed over a period of 30 min. If the mouse falls off the platform during the 30 min period, it is picked up and returned to the platform to complete the test. The number of falls is recorded, and the data are analyzed at 5 min intervals."}},
  "data": [
    {"smiles": "COC(=O)C(c1ccccc1)C1CCCCN1", "note": "(stereo not shown) [Methylphenidate, methylphenidate]", "values": [
      {"measurement": "Spontaneous locomotor activity compared to saline", "setting": "male FX mice", "value": "did not produce significant effects"}
    ]},
    {"smiles": "Oc1ccc2c3c1O[C@H]1c4[nH]c5c(c4C[C@@]4(O)[C@@H](C2)N(CC2CC2)CC[C@]314)C[C@@]1(O)[C@H]2Cc3ccc(O)c4c3[C@@]1(CCN2CC1CC1)[C@H]5O4", "note": "[nor-BNI, norbinaltorphimine]", "values": [
      {"measurement": "Time course of cliff avoidance reflex", "setting": "FX mice; female FX mice", "value": "improved the time course of cliff avoidance reflex"},
      {"measurement": "Time course of cliff avoidance reflex", "setting": "FX mice; male FX mice", "value": "did not produce significant effects"},
      {"measurement": "Spontaneous locomotor activity compared to saline", "setting": "male FX mice", "value": "significant reduction in activity"}
    ]}
  ]
}
